Key:
[1] = tested on: A2AR; conditions: ref [36]; cited from earlier work
[2] = tested on: Nb6E-E2-PTHR1; test: cell signaling assay Nb6E-E2-PTHR1; type: cell-based; conditions: comparison with past work ref [26]

Compound | A2AR agonism [1] | potency relative to past work using wild-type PTHR1 [2]
CCNC(=O)[C@H]1O[C@@H](n2cnc3c(N)nc(NCCc4ccc(CCC(=O)O)cc4)nc32)[C@H](O)[C@@H]1O [CGS21680] | potent agonist of A2AR | 
PTH(1–34): prototypical PTHR1 ligand |  | potency comparable to past work using wild-type PTHR1
